Experiments:
[1] = tested on: HuT 78 cell adhesion to 5dICAM-Ig; assay: Human T-cell adhesion assay (HuT 78); type: cell-based; details: HuT78, HuT 78 adhesion to 5dICAM-Ig
Protocol: The T-cell adhesion assay was performed using the human T-lymphoid cell line HuT 78 (ATCC TIB-161). Goat anti-HuIgG(Fc) was diluted to 2 μg/ml in PBS and 96-well plates were coated with 50 μl/well at 37° C. for 1 h. Plates were washed with PBS and blocked for 1 h at room temperature with 1% BSA in PBS. 5 domain ICAM-Ig was diluted to 100 ng/ml in PBS and 50 μl/well was added to the plates 0/N at 4° C. HuT 78 cells were centrifuged at 100 g and the cell pellet was treated with 5 mM EDTA for ˜5′ at 37° C. in a 5% CO2 incubator. Cells were washed in 0.14 M NaCl, 0.02 M Hepes, 0.2% glucose and 0.1 mM MnCl2 (assay buffer) and centrifuged. The cells were resuspended in assay buffer to 3.0×10^6 c/ml. Inhibitors were diluted in assay buffer to a 2× final concentration and pre-incubated with HuT78 cells for 30′ at room temperature. 100 μl/well of cells and inhibitors were added to the plates and incubated at room temperature for 1 h. 100 μl/well PBS was added and the plates were sealed and centrifuged inverted at 100 g for 5′. Unattached cells were flicked out of the plate and excess PBS was blotted on a paper towel. 60 μl/well p-nitrophenyl n-acetyl-β-D-glucosaminide (0.257 g to 100 ml citrate buffer) was added to the plate and incubated for 1.5 h at 37° C. The enzyme reaction was stopped with 90 μI/well 50 mM glycine/5 mM EDTA and read on a platereader at […]. HUT 78 cell adhesion to 5dICAM-Ig was measured using the p-nitrophenyl n-acetyl-.β-D-glucosaminide method of Landegren, U. (1984). J. Immunol. Methods 57, 379-388.

[2] = Solubility; type: physicochemical

Structure (SMILES) | EC50 [1] [nM] | solubility [2] [mg/mL]
CS(=O)(=O)N1CCC=C(C[C@H](NC(=O)c2c(Cl)cc3c(c2Cl)CCN(C(=O)c2ccc4ccoc4c2)C3)C(=O)O)C1 [Compound 23] | ≤ 50 | 
CS(=O)(=O)c1cccc(C[C@H](NC(=O)c2c(Cl)cc3c(c2Cl)CCN(C(=O)c2cc4cccnc4[nH]2)C3)C(=O)O)c1 [Compound 19] | ≤ 50 | > 50
CC(C)n1cc(C[C@H](NC(=O)c2c(Cl)cc3c(c2Cl)CCN(C(=O)c2ccc(Cl)cc2)C3)C(=O)O)nn1 [Compound 24] | ≤ 100 | 
CS(=O)(=O)c1cccc(C[C@H](NC(=O)c2c(Cl)cc3c(c2Cl)CCN(C(=O)c2ccc4cn[nH]c4c2)C3)C(=O)O)c1 [Compound 15] | ≤ 50 | > 100
C=C(C)c1cn(C[C@H](NC(=O)c2c(Cl)cc3c(c2Cl)CCN(C(=O)c2ccc(Cl)cc2)C3)C(=O)O)nn1 [Compound 4] | ≤ 100 | 
O=C(N[C@@H](Cc1c[nH]cn1)C(=O)O)c1c(Cl)cc2c(c1Cl)CCN(C(=O)c1ccc(Cl)cc1)C2 [Compound 1] | ≤ 300 | 
C[C@H](O)c1cccc(C[C@H](NC(=O)c2c(Cl)cc3c(c2Cl)CCN(C(=O)c2ccc4cn[nH]c4c2)C3)C(=O)O)c1 [Compound 48] | ≤ 50 | 
CS(=O)(=O)CCNC[C@H](NC(=O)c1c(Cl)cc2c(c1Cl)CCN(C(=O)c1ccc(Cl)cc1)C2)C(=O)O [Compound 42] | ≤ 3000 | > 100
O=C(N[C@@H](CNc1ncnc2ccccc12)C(=O)O)c1c(Cl)cc2c(c1Cl)CCN(C(=O)c1ccc(Cl)cc1)C2 [Compound 3] | ≤ 50 | 
CS(=O)(=O)c1cccc(C[C@H](NC(=O)c2c(Cl)cc3c(c2Cl)CCN(C(=O)c2cc4ccccc4cn2)C3)C(=O)O)c1 [Compound 16] | ≤ 50 | > 100
O=C(CCc1cc(Cl)c(C(=O)N[C@@H](CNC(=O)c2cccs2)C(=O)O)c(Cl)c1)c1cccc(O)c1 [Compound 47] | ≤ 50 | 
CS(=O)(=O)c1cccc(C[C@H](NC(=O)c2c(Cl)cc3c(c2Cl)CCN(C(=O)c2cc4ccccc4[nH]2)C3)C(=O)O)c1 [Compound 36] | ≤ 50 | > 50
Cc1cc2c(=O)n(Cc3ccccc3)ncc2cc1C(=O)N[C@@H](CNC(=O)c1cccs1)C(=O)O [Compound 29] | ≤ 3000 | > 50
CS(=O)(=O)c1cccc(C[C@H](NC(=O)c2c(Cl)cc(CNC(=O)/C=C/c3ccccc3O)cc2Cl)C(=O)O)c1 [Compound 43] | ≤ 50 | 
CS(=O)(=O)n1cc(C[C@H](NC(=O)c2c(Cl)cc3c(c2Cl)CCN(C(=O)/C=C/c2ccco2)C3)C(=O)O)c2ccccc21 [Compound 40] | ≤ 300 | 
CS(=O)(=O)c1nc(C[C@H](NC(=O)c2c(Cl)cc3c(c2Cl)CCN(C(=O)c2ccc(Cl)cc2)C3)C(=O)O)c[nH]1 [Compound 7] | ≤ 50 | 
O=C(NC[C@H](NC(=O)c1c(Cl)cc2c(c1Cl)CCN(C(=O)c1cc(O)nc3ccccc13)C2)C(=O)O)c1cccs1 [Compound 35] | ≤ 50 | > 100

Structure (SMILES) | EC50 [1] [nM] | solubility [2] [mg/mL]
CN1CCN(C(=O)[C@H](CNC(=O)c2cccs2)NC(=O)c2c(Cl)cc3c(c2Cl)CCN(C(=O)c2ccc(Cl)cc2)C3)CC1 [Compound 10] |  | > 100
CCc1c(C(=O)N[C@@H](CNC(=O)c2cccs2)C(=O)O)c2ccccc2n(CCCc2ccccc2)c1=O [Compound 6] | ≤ 50 | > 100
O=C(NC[C@H](NC(=O)c1c(Cl)cc(CCC(O)c2cccc(O)c2)cc1Cl)C(=O)O)c1cccs1 (stereo partly shown) [Compound 32] | ≤ 50 | > 50
CS(=O)(=O)c1cccc(C[C@H](NC(=O)c2c(Cl)cc3c(c2Cl)CCN(C(=O)c2ccc(Cl)cc2)C3)C(=O)O)c1 [Compound 28] | ≤ 50 | 
N#CN=C(NC[C@H](NC(=O)c1c(Cl)cc2c(c1Cl)CCN(C(=O)/C=C/c1ccccc1O)C2)C(=O)O)N1CC[C@H](O)C1 [Compound 26] | ≤ 50 | 
CS(=O)(=O)c1cccc(C[C@H](NC(=O)c2c(Cl)cc(CCC(O)c3ccc(Cl)cc3)cc2Cl)C(=O)O)c1 (stereo partly shown) [Compound 37] | ≤ 100 | 
O=C(NC[C@H](NC(=O)c1cc2c(cc1Cl)C(=O)N(Cc1ccccc1)CC2)C(=O)O)c1cccs1 [Compound 11] | ≤ 3000 | 
O=C(NC[C@H](NC(=O)c1c(Cl)cc2c(c1Cl)CCN(C(=O)c1ccc(Cl)cc1)C2CO)C(=O)O)c1cccs1 (stereo partly shown) [Compound 17] | ≤ 50 | 
CS(=O)(=O)c1cccc(C[C@H](NC(=O)c2c(Cl)cc3c(c2Cl)CCN(C(=O)/C=C/c2ccccc2F)C3)C(=O)O)c1 [Compound 27] | ≤ 50 | > 100
CS(=O)(=O)Nc1ccccc1NC[C@H](NC(=O)c1c(Cl)cc2c(c1Cl)CCN(C(=O)c1ccc(Cl)cc1)C2)C(=O)O [Compound 39] | ≤ 50 | 
O=C(NC[C@H](NC(=O)c1c(Cl)cc2c(c1Cl)CCN(C(=O)Nc1cccc(Cl)c1)C2)C(=O)O)c1cccs1 [Compound 21] | ≤ 50 | > 100
O=C(N[C@@H](Cn1cc(CO)nn1)C(=O)O)c1c(Cl)cc2c(c1Cl)CCN(C(=O)c1ccc(Cl)cc1)C2 [Compound 8] | ≤ 100 | 
CS(=O)(=O)c1ccc(C[C@H](NC(=O)c2c(Cl)cc3c(c2Cl)CCN(C(=O)c2cc4cccnc4[nH]2)C3)C(=O)O)o1 [Compound 20] | ≤ 50 | > 100
O=C(NC[C@H](NC(=O)c1c(Cl)cc2c(c1Cl)CCN(C(=O)/C=C/c1ccco1)C2)C(=O)O)c1cccs1 [Compound 45] | ≤ 50 | > 100
C[S+]([O-])c1cc(F)cc(C[C@H](NC(=O)c2c(Cl)cc3c(c2Cl)CCN(C(=O)c2ccc(Cl)cc2)C3)C(=O)O)c1 (stereo partly shown) [Compound 9] | ≤ 50 | > 50
CS(=O)(=O)c1cccc(C[C@H](NC(=O)c2c(Cl)cccc2Cl)C(=O)O)c1 [Compound 46] | ≤ 100 | > 100

Results, then the compound that gave them:

EC50 [1] [nM] | solubility [2] [mg/mL] | Structure (SMILES)
≤ 50 |  | O=C(NC[C@H](NC(=O)c1c(Cl)cc2c(c1Cl)CCN(C(=O)c1ccc(Cl)cc1)C2)C(=O)O)c1ccccc1 [Compound 5]
≤ 50 | > 100 | CS(=O)(=O)c1ccc(C[C@H](NC(=O)c2c(Cl)cc3c(c2Cl)CCN(C(=O)c2ccc4ccoc4c2)C3)C(=O)O)o1 [Compound 41]
≤ 50 |  | O=C(NC[C@H](NC(=O)c1c(Cl)cc2c(c1Cl)CCN(C(=O)c1ccc3cn[nH]c3c1)C2)C(=O)O)c1cccs1 [Compound 34]
≤ 50 | > 100 | CS(=O)(=O)NCCC[C@H](NC(=O)c1c(Cl)cc2c(c1Cl)CCN(C(=O)c1ccc3ccoc3c1)C2)C(=O)O [Compound 44]
≤ 50 |  | O=C(NC[C@H](NC(=O)c1c(Cl)cc2c(c1Cl)CCN(C(=O)c1cc3ccccc3o1)C2)C(=O)O)c1cccs1 [Compound 38]
≤ 100 |  | CP(C)(=O)c1cccc(C[C@H](NC(=O)c2c(Cl)cc3c(c2Cl)CCN(C(=O)c2ccc4ccoc4c2)C3)C(=O)O)c1 [Compound 49]
≤ 50 |  | O=C(NC[C@H](NC(=O)c1c(Cl)cc2c(c1Cl)CCN(C(=O)c1ccc(Cl)c(Cl)c1)C2)C(=O)O)c1cccs1 [Compound 18]
≤ 50 | > 100 | CS(=O)(=O)c1cccc(C[C@H](NC(=O)c2c(Cl)cc3c(c2Cl)CCN(C(=O)c2ccc4ccoc4c2)C3)C(=O)O)c1 [Compound 12]
≤ 50 |  | Cc1oc(C[C@H](NC(=O)c2c(Cl)cc3c(c2Cl)CCN(C(=O)c2ccc4ccoc4c2)C3)C(=O)O)cc1S(C)(=O)=O [Compound 30]
≤ 50 |  | CS(=O)(=O)c1cncc(C[C@H](NC(=O)c2c(Cl)cc3c(c2Cl)CCN(C(=O)c2ccc4ccoc4c2)C3)C(=O)O)c1 [Compound 33]
≤ 50 | > 50 | O=C(NC[C@H](NC(=O)c1c(Cl)cc2c(c1Cl)CCN(C(=O)c1ccc3ccoc3c1)C2)C(=O)O)c1cccc(F)c1 [Compound 31]
≤ 50 | > 100 | O=C(NC[C@H](NC(=O)c1c(Cl)cc2c(c1Cl)CCN(C(=O)c1cccc(Cl)c1)C2)C(=O)O)c1cccs1 [Compound 2]
≤ 50 |  | CS(=O)(=O)c1ccn(C[C@H](NC(=O)c2c(Cl)cc3c(c2Cl)CCN(C(=O)c2ccc4ccoc4c2)C3)C(=O)O)c1 [Compound 22]
≤ 50 |  | C[S+]([O-])c1cncc(C[C@H](NC(=O)c2c(Cl)cc3c(c2Cl)CCN(C(=O)c2ccc4ccoc4c2)C3)C(=O)O)c1 (stereo partly shown) [Compound 14]
≤ 50 | > 100 | CS(=O)(=O)c1cc(F)cc(C[C@H](NC(=O)c2c(Cl)cc3c(c2Cl)CCN(C(=O)c2ccc4ccoc4c2)C3)C(=O)O)c1 [Compound 25]
≤ 50 |  | O=C(NC[C@H](NC(=O)c1c(Cl)cc2c(c1Cl)CCN(C(=O)c1ccc3cc[nH]c3c1)C2)C(=O)O)c1cccs1 [Compound 13]

Source: patent US10960087B2, “Compositions and methods for treatment of diabetic retinopathy” (NOVARTIS AG, priority 2007, dated 2021)
